≈ marks a conversion by molar mass, not a printed value.
Legend:
murine podocytes [1] = test: Primary HCS screen of chemical library, cell roundness Z score, PAN injury; type: cell-based; details: PAN 16 μg/ml, 48 hours; for primary hit (protects podocytes from PAN damage): Z-score cutoff ≦−1.28
Experimental: Screening of chemical libraries, which include the MicroSource Spectrum collection (MicroSource Discovery Systems, Inc., Gaylorsville, C T, 2000 compounds) and Enzo kinase inhibitor array (Enzo Life Sciences, Farmingdale, N.Y., 80 compounds), Sigma, Millipore, Tocris and Cayman (41 compounds), was performed using multiwall plates. Podocytes cultured in multiwall plates were used in these assays. 100 nL of each compound, also in multiwall plates (at a stock concentration of 1 mM to 10 mM in DMSO), was added to each well of a podocyte containing multiwall plate using the Perkin Elmer Janus automated workstation with the help of a 96-pin or 384-pin pin tool (100 nL, PerkinElmer). The compounds were added in the absence or presence of podocyte damaging agent (such as PAN). The plates containing the compounds were subsequently placed in tissue culture incubators and cells were further cultured for 1-72 h at 37° C. A compound that decreased PAN damaged was identified by quantifying the changes in at least one of the following parameters: cell morphology, cell roundedness, F-actin intensity, number of focal adhesions, intensity or size of focal adhesions, length of actin fibers, size of actin fibers, percent damaged or percent healthy cells etc. In certain cases, hits were validated by acquiring a fresh batch of the compound from commercial sources and performing dose-response curves. Images from the primary screen were quantified for cell morphology parameter and were normalized by calculating z-score (z) for each test compound, to compensate for any plate-to-plate variability. (Wiggins, Kidney International, 2007) z was calculated for each of the test compounds using the formula: […]
where x is the raw measured value with each compound, μ is the mean of all measured raw values across a plate and a is the standard deviation of the measurements. A z-score of […], corresponding to 90% population under the curve, was used as a cutoff to identify primary hits in the assay.
To identify small molecules that protect podocytes from PAN injury, a chemical library of 2121 pharmacologically active compounds was screened. Podocytes were treated with compounds from the chemical library in the presence of PAN (16 μg/ml) at 37° C. for 48 hours. The assay plates also contained eight positive (PAN and MZR treatment) and eight negative (PAN treatment) control wells. Wells were imaged and analyzed, and the mean cell roundness per cell was calculated for each well. Mean cell roundness was normalized using plate-based positive and negative controls, and a Z score for the change in cell morphology on treatment with each compound (SD away from the plate mean) was calculated. The results from the screen are presented as a graph in FIG. 7A. Wells with nuclei counts. […] Primary hits (compounds that protected podocytes from PAN damage) were identified from the assay using a Z-score cutoff of ≦−1.28 corresponding to the 10% population on one side of the bell-shaped curve. […] Given that our assay is image based, the images from all initial hits were visually inspected manually, which eliminated 10 compounds as nonhits. […] The identified list of primary hit compounds included three Rho kinase inhibitors (Y27632, GSK 429286, and Thiazovivin) and a p38 kinase inhibitor (SB 203580). […] Next, to validate the hit compounds identified from our screen, selected primary hits were reanalyzed using independently obtained powder forms of the compounds.

murine podocytes [2] = test: Podocyte HCS phenotypic assay, PAN-induced podocyte injury; type: cell-based; details: for prevention of PAN induced injury, dose-response of percent damaged cells (FIG. 4A-4P): 30 ug/ml PAN, co-treatment, multi-parameter algorithm
Experimental: Conditionally immortalized human and murine podocytes were used in a majority of the assays. Human and murine podocytes were cultured as have been described previously (Saleem et al., JASN 13, 630-638 (2002); Mundel, Reiser et al., Experimental Cell Research, 236, p 248 (1997)). For example, murine podocytes derived from the mouse line H-2Kb-tsA58 were cultured under permissive conditions at 33° C. on rat-tail collagen coated dishes in RPMI medium supplemented with 10% heat inactivated FBS, penicillin and streptomycin (100 U/ml), and 10 U/ml recombinant mouse γ-interferon. Cells were then trypsinized and re-plated for differentiation at 37° C. in medium without γ-interferon. The cells were differentiated for 0 to 7 days and then reseeded to rat-tail collagen coated multi-well plates at a density of 1500/well or 500/well for 96 and 384 well plates, respectively. Cells were then further differentiated for another 5-14 days in the multi-well plates for subsequent experimentation with various reagents prior to fixation and analyses.
In some embodiments, podocytes were cultured at 37° C. for the first 7 days of differentiation in large tissue culture flasks and subsequently reseeded and further cultured at 37° C. in the 96-well assay plates for the next 4-6 days to provide low well-to-well variability in cell number in the assay plates and healthy podocytes expressing specific and well characterized podocyte markers synaptopodin and podocin.
Differentiated podocytes were cultured in 96-well or 384-well multiwall optical plates (PerkinElmer, Boston, Mass.). In some embodiments, differentiated podocytes were treated with various amounts of puromycin aminonucleoside (PAN), […] LPS, Adriamycin and other agents. In some embodiments, the cells were co-treated with chemical and other agents (such as mizouribine) to prevent damage from damaging agents (such as PAN). In other embodiments, the rescue agents were added 0-48 h after the addition of injury causing agents. In some embodiments, patient samples such as blood, serum, urine or other samples were added to differentiated podocytes to identify disease causing agents. In some embodiments, primary, differentiated patient podocytes were cultured to identify defects in structure and/or function.
After culturing for the appropriate time and treatment or control, cultured podocytes in multi-well optical plates were rinsed with phosphate buffered saline (PBS) and subsequently fixed using a solution of paraformaldehyde and sucrose in PBS (at a final concentration of 4% paraformaldehyde and 2% sucrose in PBS) for 30 min at room temperature. Following fixation, the cells were permeabilization using a solution of 0.3% Triton X-100 in PBS for 15 min at room temperature. For visualization of filamentous-actin (F-Actin) in cells, cells were stained with a solution of Alexa fluor 568 phalloidin (Invitrogen), as previously described. HCS CellMask Blue (Invitrogen) was used as a fluorescent stain for visualizing nuclei, cytoplasm and the individual cell boundaries. Additional proteins that were fluorescently labeled and analyzed using appropriate primary mAbs include synaptopodin (synpo, primary mAb from Santa Cruz), Paxillin (primary mAb clone Y113 from Millipore) for quantitation of focal adhesions, beta1 integrin, podocin, WT1 nephrin, CD2-AP may also be used. Other proteins may also be used for labeling. Appropriate secondary antibodies (fluorescently labeled) were used for fluorescent visualizations. High throughput confocal microscopy was done using the Opera LX (Perkin Elmer) with filters and exposure times according to manufacturer's instructions and as described before. Images were used in subsequent image analysis for quantitation of a variety of cellular parameters. Assays were performed in replicate wells for assay robustness.
Images for each frame of each well in multiple fluorescent channels were acquired using OPERA imaging system. […]

Compound	primary hit (protects podocytes from PAN damage) (murine podocytes [1])	prevention of PAN induced injury, dose-response of percent damaged cells (FIG. 4A-4P) (murine podocytes [2])	further results
C#C[C@]1(OC(C)=O)CC[C@H]2[C@@H]3CCC4=CC(=NO)CC[C@@H]4[C@H]3CC[C@@]21CC (mixture of isomers) [norgestimate]	identified	–	–
Cc1cccc(-c2[nH]ncc2-c2ccc3ncccc3n2)n1 [Alk5 Inhibitor2]	–	prevented PAN induced injury	–
O=c1cc(-c2ccc(O)cc2)oc2cc(O)cc(O)c12 [Apigenin]	primary hits	prevented PAN induced injury	–
COc1ccc2cc3[n+](cc2c1OC)CCc1cc2c(cc1-3)OCO2 [Berberine]	primary hits	prevented PAN induced injury	–
C[C@@H]1C[C@H]2[C@@H]3CCC4=CC(=O)C=C[C@]4(C)[C@@]3(F)[C@@H](O)C[C@]2(C)[C@@]1(O)C(=O)CO [DEX, Dexamethasone]	–	–	lowest concentration able to protect cells from PAN damage (murine podocytes [2]; PAN 30 μg/ml, F-actin fiber count, 48 h): 0.1 µM
COc1ccc(-c2cc(=O)c3c(O)cc(O)cc3o2)cc1O [Diosmetin]	–	prevented PAN induced injury	–
COc1cc2nc(N3CCN(C(=O)C4COc5ccccc5O4)CC3)nc(N)c2cc1OC (stereo not shown) [Doxazocin]	primary hits	prevented PAN induced injury	–
CCOc1ccc(Cc2nccc3cc(OCC)c(OCC)cc23)cc1OCC [Ethaverine]	–	prevented PAN induced injury	–
Nc1[nH]nc2nnc(-c3c(-c4ccccc4)nn4ccccc34)cc12 [FR 180204]	–	prevented PAN induced injury	–
CC1=C(C(=O)Nc2cc3cn[nH]c3cc2F)C(c2ccc(C(F)(F)F)cc2)CC(=O)N1 (stereo not shown) [GSK429286]	primary hit	prevented PAN induced injury	–
O=C1Cc2c([nH]c3ccc(Br)cc23)-c2ccccc2N1 [Kenpoullon]	–	prevented PAN induced injury	–
c1coc(CNc2ncnc3[nH]cnc23)c1 [Kinetin]	–	prevented PAN induced injury	–
NC(=O)c1ncn([C@@H]2O[C@H](CO)[C@@H](O)[C@H]2O)c1O [MZR, Mizoribine]	–	–	Z score of cell roundness (murine podocytes [1]; 37° C., negative Z score = active): −2.31±0.2; EC50 (murine podocytes [2]; Mus musculus, PAN 30 μg/ml, 48 hours, read-out: concentration reducing PAN damage by one half (half-maximal effective concentration)): 1.4 µg/mL (≈ 5.4 µM); concentration affording complete protection of podocytes from PAN injury (murine podocytes [2]; PAN 30 μg/ml, 48 hours): 5 µg/mL; dose-dependent protection of podocytes from PAN-induced injury (murine podocytes [2]; PAN 16-30 μg/ml, 48 hours, F-actin fibers and other parameters): dose-dependent protection
COc1nccc(-c2c(-c3ccc(F)cc3)ncn2C2CCC(O)CC2)n1 (stereo not shown) [P38 inhibitor (SB239063)]	–	prevented PAN induced injury	–
CN(C)c1ncnc2c1ncn2[C@@H]1O[C@H](CO)[C@@H](N)[C@H]1O [PAN, puromycin aminonucleoside]	–	–	PAN concentration causing half-maximal damage (murine podocytes [2]; Mus musculus, 48 h, read-out: PAN concentration causing half-maximal damage (half-maximal inhibitory concentration)): 16 µg/mL
C[S+]([O-])c1ccc(-c2nc(-c3ccncc3)c(-c3ccc(F)cc3)[nH]2)cc1 (stereo not shown) [SB 203580]	primary hit	–	–
O=C(NCc1ccccc1)c1csc(Nc2ccncn2)n1 [Thiazovivin]	primary hit	–	–
Nc1nc2nc[nH]c2c(=S)[nH]1 [Thioguanidine]	primary hits	prevented PAN induced injury	–
C[C@@H](N)[C@H]1CC[C@H](C(=O)Nc2ccncc2)CC1 [Y27632]	primary hit	prevented PAN induced injury	–
C=CC[C@]1(O)CC[C@H]2[C@@H]3CCC4=CC(=O)CCC4=C3C=C[C@@]21C [altrenogest]	identified	–	–
Agelasine	primary hits	prevented PAN induced injury	–
Derusnin	–	prevented PAN induced injury	–
Mundeserone	–	prevented PAN induced injury	–
antimycin A	primary hits	–	–

From patent US20170269060A1, “Assays and Compounds to Treat Kidney Diseases” (Rush University Medical Center, priority 2014, published 2017)
